Reference: patent publication US9469615B2, “Quinoxalines and AZA-quinoxalines as CRTH2 receptor modulators” (Merck Sharp & Dohme Corp., priority 2010, dated 2016)

Biological target: T1, hCRTH2 (Homo sapiens, UniProt Q9Y5Y4)
T1 construct: expressed in transfected cells; host or cells: HEK (human embryonic kidney) cells expressing hCRTH2; membrane preparation
T1 sequence (Q9Y5Y4 1-395): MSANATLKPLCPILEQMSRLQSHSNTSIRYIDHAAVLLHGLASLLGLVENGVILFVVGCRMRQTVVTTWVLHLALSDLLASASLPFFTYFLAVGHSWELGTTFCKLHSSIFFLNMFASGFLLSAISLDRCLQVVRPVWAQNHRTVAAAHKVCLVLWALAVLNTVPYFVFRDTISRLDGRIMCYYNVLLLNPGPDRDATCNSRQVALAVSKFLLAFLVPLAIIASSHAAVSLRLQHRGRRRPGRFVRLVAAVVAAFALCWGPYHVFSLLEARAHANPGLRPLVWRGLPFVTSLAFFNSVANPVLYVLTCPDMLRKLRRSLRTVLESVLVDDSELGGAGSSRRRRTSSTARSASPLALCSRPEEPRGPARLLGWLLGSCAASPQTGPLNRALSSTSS
Experiment: Radioligand binding assay ([3H]PGD2 competition, HEK-hCRTH2 membranes)
Conditions: [3H]PGD2 competition, Table B
In short: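 Membranes (8-20 μg protein) from HEK-hCRTH2 cells were incubated 60 min at room temperature with 3.0 nM [3H]PGD2 in 50 mM Tris-HCl pH 7.4, 1 mM EDTA, 2 mM MnCl2, 1% DMSO. Non-specific binding defined with 10 μM PGD2. Bound radioactivity counted after filtration.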

Row | Ki [nM] | SMILES
1 | 20.1 to 200 | O=C(O)CCCCc1nc2cc(C(=O)N[C@H]3CC(=O)Nc4ccc(F)cc43)ccc2nc1-c1ccccc1 [compound 712, (S)-5-(7-((6-fluoro-2-oxo-1,2,3,4-tetrahydroquinolin-4-yl)carbamoyl)-3-phenylquinoxalin-2-yl)pentanoic acid]
2 | 2.1 to 20 | O=C(O)CCCCc1nc2cc(C(=O)N[C@@H]3CC(=O)Nc4ccc(F)cc43)ccc2nc1-c1ccccc1 [compound 713, (R)-5-(7-((6-fluoro-2-oxo-1,2,3,4-tetrahydroquinolin-4-yl)carbamoyl)-3-phenylquinoxalin-2-yl)pentanoic acid]
3 | 20.1 to 200 | O=C(O)CCCCc1nc2cc(C(=O)N[C@H]3CCS(=O)(=O)c4ccccc43)ccc2nc1-c1ccccc1 [compound 714, (S)-5-(7-((1,1-dioxidothiochroman-4-yl)carbamoyl)-3-phenylquinoxalin-2-yl)pentanoic acid]
4 | 2.1 to 20 | O=C(O)CCCCc1nc2cc(C(=O)N[C@@H]3CCS(=O)(=O)c4ccccc43)ccc2nc1-c1ccccc1 [compound 715, (R)-5-(7-((1,1-dioxidothiochroman-4-yl)carbamoyl)-3-phenylquinoxalin-2-yl)pentanoic acid]
5 | 2.1 to 20 | O=C(O)CCCCc1nc2cc(C(=O)N[C@@H]3CCCc4ccccc43)c(F)cc2nc1-c1ccccc1 [compound 716, (R)-5-(6-fluoro-3-phenyl-7-((1,2,3,4-tetrahydro-naphthalen-1-yl)carbamoyl)quinoxalin-2-yl)pentanoic acid]
6 | 2.1 to 20 | O=C(O)CCCCc1nc2cc(C(=O)N[C@@H]3CCCc4ccccc43)c(F)cc2nc1-c1ccc(F)cc1 [compound 717, (R)-5-(6-fluoro-3-(4-fluorophenyl)-7-((1,2,3,4-tetrahydronaphthalen-1-yl)carbamoyl)quinoxalin-2-yl)pentanoic acid]
7 | 2.1 to 20 | O=C(O)CCCCc1nc2cc(C(=O)N[C@@H]3CCCc4ccccc43)c(F)cc2nc1-c1ccc(Cl)cc1 [compound 718, (R)-5-(3-(4-chlorophenyl)-6-fluoro-7-((1,2,3,4-tetrahydronaphthalen-1-yl)carbamoyl)quinoxalin-2-yl)pentanoic acid]
8 | 2.1 to 20 | O=C(O)CCCCc1nc2cc(C(=O)N[C@@H]3CCOc4cc(C(F)(F)F)ccc43)ccc2nc1-c1ccc(Cl)cc1 [compound 720, (R)-5-(3-(4-chlorophenyl)-7-((7-(trifluoromethyl)chroman-4-yl)carbamoyl)quinoxalin-2-yl)pentanoic acid]
9 | 2.1 to 20 | CC1(C)CC[C@H](NC(=O)c2ccc3nc(-c4ccccc4)c(CCCCC(=O)O)nc3c2)c2ccccc21 [compound 721, (S)-5-(7-((4,4-dimethyl-1,2,3,4-tetrahydronaphthalen-1-yl)carbamoyl)-3-phenylquinoxalin-2-yl)pentanoic acid]
10 | 2.1 to 20 | CC1(C)CC[C@@H](NC(=O)c2ccc3nc(-c4ccccc4)c(CCCCC(=O)O)nc3c2)c2ccccc21 [compound 722, (R)-5-(7-((4,4-dimethyl-1,2,3,4-tetrahydronaphthalen-1-yl)carbamoyl)-3-phenylquinoxalin-2-yl)pentanoic acid]
11 | 20.1 to 200 | O=C(O)CCCc1nc2cc(C(=O)N[C@@H]3CCCc4cc(F)ccc43)ccc2nc1-c1ccccc1 [compound 723, (R)-4-(7-((6-fluoro-1,2,3,4-tetrahydronaphthalen-1-yl)carbamoyl)-3-phenylquinoxalin-2-yl)butanoic acid]
12 | 201 to 700 | O=C(O)CCCc1nc2cc(C(=O)N[C@@H]3CCCc4ccccc43)ccc2nc1-c1ccccc1 [compound 724, (R)-4-(3-phenyl-7-((1,2,3,4-tetrahydronaphthalen-l-yl)carbamoyl)quinoxalin-2-yl)butanoic acid]
13 | 201 to 700 | O=C(O)CCCc1nc2cc(C(=O)N[C@@H]3CCOc4cc(F)ccc43)ccc2nc1-c1ccccc1 [compound 725, (R)-4-(7-((7-fluorochroman-4-yl)carbamoyl)-3-phenylquinoxalin-2-yl)butanoic acid]
14 | 2.1 to 20 | C[C@@H](NC(=O)c1cc2nc(CCCCC(=O)O)c(-c3ccccc3)nc2cc1F)c1ccc(F)cc1 [compound 727, (R)-5-(6-fluoro-7-((1-(4-fluorophenyl)ethyl)carbamoyl)-3-phenylquinoxalin-2-yl)pentanoic acid]
15 | 2.1 to 20 | O=C(O)CCCCc1nc2cc(C(=O)N[C@@H]3CCOc4ccccc43)c(F)cc2nc1-c1ccccc1 [compound 728, (R)-5-(7-(chroman-4-ylcarbamoyl)-6-fluoro-3-phenylquinoxalin-2-yl)pentanoic acid]

Row | SMILES | Ki [nM]
16 | O=C(O)CCCCc1nc2cc(C(=O)N3C4C=C(c5ccccc5)CC3CC4)ccc2nc1-c1ccccc1 (stereo not shown) [compound 719, 5-(3-phenyl-7-(3-phenyl-8-azabicyclo[3.2.1]oct-2-ene-8-carbonyl)quinoxalin-2-yl)pentanoic acid] | 2.1 to 20
